Measured values published in PubChem BioAssay AID192 (DTP/NCI, 2004).
“And” between values parts separate entries of the source, which are not always exact repeats. Equal values may be shown once. Inconclusive results and toxic doses are left out. The calls were made as follows: active = survival T/C of 150% or more; inactive = T/C below 125% in these data.

System: BDF1 mice, B16 melanoma ip, median survival T/C
Assay: NCI In Vivo Anticancer Drug Screen. Data for tumor model B16 Melanoma (intraperitoneal) in B6D2F1 (BDF1) mice
Settings: endpoint: median survival time, higher = longer survival
Procedure, shortened: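 Mice with transplantable tumors; drug vs vehicle groups; endpoint survival or tumor size; value = T/C.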

[1] = dose: 0.75 mg/kg/injection, schedule: Q01DX009 (ip), vehicle: saline with Tween-80
[2] = dose: 1.5 mg/kg/injection, schedule: Q01DX009 (ip), vehicle: saline with Tween-80
[3] = dose: 6.25 mg/kg/injection, schedule: Q01DX009 (ip), vehicle: saline with Tween-80
[4] = dose: 100.0 mg/kg/injection, schedule: Q01DX009 (ip), vehicle: Klucel (hydroxypropylcellulose) (HPC)
[5] = dose: 200.0 mg/kg/injection, schedule: Q01DX009 (ip), vehicle: Klucel (hydroxypropylcellulose) (HPC)
[6] = dose: 400.0 mg/kg/injection, schedule: Q01DX009 (ip), vehicle: Klucel (hydroxypropylcellulose) (HPC)
[7] = dose: 6.25 mg/kg/injection, schedule: Q01DX009 (ip), vehicle: Klucel (hydroxypropylcellulose) (HPC)
[8] = dose: 12.5 mg/kg/injection, schedule: Q01DX009 (ip), vehicle: Klucel (hydroxypropylcellulose) (HPC)
[9] = dose: 25.0 mg/kg/injection, schedule: Q01DX009 (ip), vehicle: Klucel (hydroxypropylcellulose) (HPC)
[10] = dose: 50.0 mg/kg/injection, schedule: Q01DX009 (ip), vehicle: Klucel (hydroxypropylcellulose) (HPC)
[11] = dose: 100.0 mg/kg/injection, schedule: Q01DX009 (ip), vehicle: saline with Tween-80
[12] = dose: 200.0 mg/kg/injection, schedule: Q01DX009 (ip), vehicle: saline with Tween-80
[13] = dose: 12.5 mg/kg/injection, schedule: Q01DX009 (ip), vehicle: saline with Tween-80
[14] = dose: 25.0 mg/kg/injection, schedule: Q01DX009 (ip), vehicle: saline with Tween-80
[15] = dose: 50.0 mg/kg/injection, schedule: Q01DX009 (ip), vehicle: saline with Tween-80

Measured: T/C

CCCCNc1ccc(C(=O)O)cc1
inactive: dose: 100.0 mg/kg/injection, schedule: Q04DX003 (ip), vehicle: gum acacia 97 % of control | dose: 200.0 mg/kg/injection, schedule: Q04DX003 (ip), vehicle: gum acacia 97 % of control | dose: 400.0 mg/kg/injection, schedule: Q04DX003 (ip), vehicle: gum acacia 86 % of control

Cc1nc2ccccc2nc1CI
inactive: [1] 106 % of control | [2] 93 % of control | dose: 3.0 mg/kg/injection, schedule: Q01DX009 (ip), vehicle: saline with Tween-80 106 % of control | dose: 6.0 mg/kg/injection, schedule: Q01DX009 (ip), vehicle: saline with Tween-80 93 % of control | [3] 91 % of control

CCOC(CNC(=O)OCc1ccccc1)OCC
inactive: [4] 93 % of control | [5] 93 % of control | [6] 90 % of control

Cc1ccc(NC(=O)NC(C)C)c(C)c1
inactive: [7] 101 % of control | [8] 95 % of control | [9] 94 % of control

COC(COC(N)=O)C1=C(N2CC2)C(=O)C(C)=C(N2CC2)C1=O (stereo not drawn)
inactive: dose: 0.03 mg/kg/injection, schedule: Q01DX009 (ip), vehicle: saline 93 % of control and 107 % of control and 122 % of control | dose: 0.06 mg/kg/injection, schedule: Q01DX009 (ip), vehicle: saline 101 % of control and 114 % of control | dose: 0.12 mg/kg/injection, schedule: Q01DX009 (ip), vehicle: saline 123 % of control
active: dose: 0.25 mg/kg/injection, schedule: Q01DX009 (ip), vehicle: saline 163 % of control | dose: 0.5 mg/kg/injection, schedule: Q01DX009 (ip), vehicle: saline 179 % of control and 196 % of control

Nc1ccccc1S(=O)(=O)Nc1ccccc1
inactive: [4] 96 % of control | [5] 107 % of control | [6] 110 % of control

C/C1=C/C2=CC(C)C[C@@H]2C(=O)[C@]2(C)C(=O)CC(C)(C)[C@H]2CC1=O (stereo partly drawn)
inactive: dose: 0.13 mg/kg/injection, schedule: Q01DX009 (ip), vehicle: Klucel (hydroxypropylcellulose) (HPC) 102 % of control | dose: 0.25 mg/kg/injection, schedule: Q01DX009 (ip), vehicle: Klucel (hydroxypropylcellulose) (HPC) 96 % of control | dose: 0.5 mg/kg/injection, schedule: Q01DX009 (ip), vehicle: Klucel (hydroxypropylcellulose) (HPC) 96 % of control | dose: 1.0 mg/kg/injection, schedule: Q01DX009 (ip), vehicle: Klucel (hydroxypropylcellulose) (HPC) 91 % of control

O=CC(NC(=O)N(CCF)N=O)C(O)C(O)C(O)CO (stereo not drawn)
inactive: dose: 3.12 mg/kg/injection, schedule: Q01DX001 (ip), vehicle: saline 100 % of control
active: dose: 25.0 mg/kg/injection, schedule: Q01DX001 (ip), vehicle: saline 171 % of control | dose: 50.0 mg/kg/injection, schedule: Q01DX001 (ip), vehicle: saline 189 % of control | dose: 100.0 mg/kg/injection, schedule: Q01DX001 (ip), vehicle: saline 231 % of control

O=C1c2c(O)cccc2-c2nn(CCNCCO)c3ccc(NCCNCCO)c1c23
active: dose: 2.75 mg/kg/injection, schedule: Q01DX009 (ip), vehicle: water 306 % of control | dose: 5.5 mg/kg/injection, schedule: Q01DX009 (ip), vehicle: water 306 % of control

CCOC(=O)/C(Cc1cc[n+]([O-])c2ccccc12)=N/O
inactive: dose: 100.0 mg/kg/injection, schedule: Q04DX003 (ip), vehicle: Klucel (hydroxypropylcellulose) (HPC) 88 % of control | dose: 200.0 mg/kg/injection, schedule: Q04DX003 (ip), vehicle: Klucel (hydroxypropylcellulose) (HPC) 97 % of control | dose: 400.0 mg/kg/injection, schedule: Q04DX003 (ip), vehicle: Klucel (hydroxypropylcellulose) (HPC) 88 % of control

NC(N)=Nc1ccc(C(=O)Nc2ccc([N+](=O)[O-])cc2)cc1
inactive: [10] 98 % of control | [4] 98 % of control | [5] 94 % of control

CN=C(N)Nc1ccc(C(=O)Oc2ccc([N+](=O)[O-])cc2)cc1
inactive: [8] 103 % of control | [9] 102 % of control | [10] 104 % of control | [4] 106 % of control

CC(=O)OCC1OC(n2ccc(N)nc2=O)C(OC(C)=O)C1OC(C)=O (stereo not drawn)
inactive: dose: 12.5 mg/kg/injection, schedule: Q01DX009 (ip), vehicle: saline 105 % of control | dose: 25.0 mg/kg/injection, schedule: Q01DX009 (ip), vehicle: saline 105 % of control | dose: 50.0 mg/kg/injection, schedule: Q01DX009 (ip), vehicle: saline 105 % of control | dose: 100.0 mg/kg/injection, schedule: Q01DX009 (ip), vehicle: saline 109 % of control

CC(=O)OC1CCC(C2CCCCC2)CC1 (stereo not drawn)
inactive: [11] 111 % of control | [12] 118 % of control

O=C1CC(C(=O)N2Cc3cc4ccccc4nc3C2)CO1 (stereo not drawn)
inactive: [3] 111 % of control | [13] 115 % of control | [14] 113 % of control | [15] 109 % of control | [11] 116 % of control | [12] 100 % of control

NC(=O)NC1CCCCCCC1
inactive: [11] 100 % of control | [12] 93 % of control | dose: 400.0 mg/kg/injection, schedule: Q01DX009 (ip), vehicle: saline with Tween-80 104 % of control

CN(Cc1ccccc1)/N=N/c1nc[nH]c1C(N)=O
inactive: [14] 111 % of control | [15] 111 % of control | [11] 111 % of control | [12] 110 % of control

C=CS(C=C)=NS(=O)(=O)c1ccc(C)cc1
inactive: dose: 1.56 mg/kg/injection, schedule: Q01DX009 (ip), vehicle: Klucel (hydroxypropylcellulose) (HPC) 95 % of control and 108 % of control | dose: 3.12 mg/kg/injection, schedule: Q01DX009 (ip), vehicle: Klucel (hydroxypropylcellulose) (HPC) 95 % of control and 101 % of control | [7] 97 % of control and 98 % of control | [8] 107 % of control and 110 % of control | [9] 88 % of control and 95 % of control

NC(=S)N/N=C/c1ccc(OC(F)(F)F)cn1
inactive: dose: 1.56 mg/kg/injection, schedule: Q01DX009 (ip), vehicle: saline with Tween-80 92 % of control | dose: 3.13 mg/kg/injection, schedule: Q01DX009 (ip), vehicle: saline with Tween-80 94 % of control | [3] 89 % of control | [13] 95 % of control

NC(Cc1cc(I)c(Oc2cc(I)c(O)c(I)c2)c(I)c1)C(=O)O (stereo not drawn)
inactive: dose: 1.0 mg/kg/injection, schedule: Q01DX009 (ip), vehicle: saline 93 % of control | dose: 2.0 mg/kg/injection, schedule: Q01DX009 (ip), vehicle: saline 101 % of control | dose: 4.0 mg/kg/injection, schedule: Q01DX009 (ip), vehicle: saline 92 % of control | dose: 16.0 mg/kg/injection, schedule: Q01DX009 (ip), vehicle: saline 101 % of control

CCC[CH2][Hg][Cl]
inactive: [1] 91 % of control | [2] 92 % of control

CC(C)CC(N)C(=O)OCc1ccccc1 (stereo not drawn)
inactive: dose: 100.0 mg/kg/injection, schedule: Q04DX003 (ip), vehicle: saline 109 % of control | dose: 200.0 mg/kg/injection, schedule: Q01DX009 (ip), vehicle: saline 93 % of control | dose: 200.0 mg/kg/injection, schedule: Q04DX003 (ip), vehicle: saline 104 % of control | dose: 400.0 mg/kg/injection, schedule: Q01DX009 (ip), vehicle: saline 91 % of control | dose: 400.0 mg/kg/injection, schedule: Q04DX003 (ip), vehicle: saline 100 % of control

O=S(=O)(O)O.[NH-]CC1(C[NH-])CCCCC1.[Pt+2]
active: dose: 8.0 mg/kg/injection, schedule: Q04DX003 (ip), vehicle: dextrose 161 % of control

COC(=O)c1ccc(=O)c2nc3/c(=C/O)c(O)cc(=O)c3[nH]c12
inactive: dose: 0.01 mg/kg/injection, schedule: Q01DX009 (ip), vehicle: saline with Tween-80 102 % of control | dose: 0.01 mg/kg/injection, schedule: Q04DX003 (ip), vehicle: saline with Tween-80 91 % of control | dose: 0.02 mg/kg/injection, schedule: Q01DX009 (ip), vehicle: saline with Tween-80 90 % of control | dose: 0.02 mg/kg/injection, schedule: Q04DX003 (ip), vehicle: saline with Tween-80 102 % of control | dose: 0.04 mg/kg/injection, schedule: Q01DX009 (ip), vehicle: saline with Tween-80 95 % of control | dose: 0.04 mg/kg/injection, schedule: Q04DX003 (ip), vehicle: saline with Tween-80 106 % of control
